{"source": "patent US8138184B2", "about": "“Isoxazole derivatives and pharmaceutical compositions comprising the same” (Kaohsiung Medical University, priority 2008, dated 2012)", "key": {"[1]": {"test_system": "Human adipose tissue derived stem cells (hADSCs)", "test": "Osteogenic differentiation and quantification of mineralization (Alizarin red S) in hADSCs", "assay_type": "cell-based", "conditions": "10 μM, 10 days", "procedure": "(§1) Human adipose tissue derived stem cells (hADSCs), which is derived from adipose tissue, were selected an maintained in a keratinocyte SFM medium (Gibco BRL, Gaithersburg, Md.) supplemented with 5% FBS, 100 U/ml of penicillin and streptomycin.\n(§2) New synthetic compounds were dissolved in DMSO to a final concentration of 10 mM and stored at −20° C. The concentration used was 10 μM and freshly diluted to the medium with a final concentration of DMSO at 0.1%. Control cultures were treated with the same amount of DMSO as used in the corresponding experiments.\nOsteogenic differentiation was induced by culturing cells in an osteo-induction medium (OIM, 10% FBS, 0.1 μM dexamethasone, 10 mM β-glycerophosphate, and L-Ascorbic 2 phosphate 100 μM in low glucose DMEM) for 7-14 days. The extracellular matrix calcification was estimated by using an Alizarin red S stain (Carl, A. et al Anal. Biochem. 2004, 329, 77). The Alizarin red S-stained mineral was quantified by the osteogenesis quantification kit (CHEMICON®)."}, "[2]": {"test_system": "Human adipose tissue derived stem cells (hADSCs)", "test": "Cell viability by MTT assay in hADSCs", "assay_type": "cell-based", "conditions": "10 μM, % of control", "procedure": "as §1, §2\nThe MTT assay is a calorimetric assay based on the ability of the viable cells to reduce a soluble yellow tetrazolium salt to blue formazan crystals (Carmichael, J. et. el. Cancer Research 1987, 47, 936). After compound treatments, 350 μL of MTT solution ([…] in PBS) were added to each well and incubated for 4 hrs. DMSO was then added for another 0.5 hrs to thoroughly dissolve the dark blue crystals. The absorbance at 570 nm was measured with an ELISA reader. Inhibition of mitochondrial metabolism was shown as relative activity (% of control)."}, "[3]": {"test_system": "MCF-7 cells (human breast adenocarcinoma)", "test": "Cytotoxicity assay (MTS reduction), MCF-7", "assay_type": "cell-based", "conditions": "3 days, % of DMSO control", "procedure": "(§3) MCF-7 cells (human breast adenocarcinoma), NCI-H460 cells (non-small-cell lung cancer) and SF-268cells (glioblastoma cells) were cultured in a Dulbecco's modified Eagle's medium supplemented with a 10% fetal calf serum and a nonessential amino acid (Life Technologies, Inc.) and maintained at 37° C. in a humidified incubator with 5% CO2.\n(§4) Human cancer cells were seeded in 96-well microtiter plates at a density of 6500, 2500 and 7500 cells/well in 100 μl of culture medium for MCF-7, NCI-H460, and SF-268, respectively. […] Cells were treated with test compounds for 3 days. Cell viability was determined by the 5-[3-(carboxymethoxy)-phenyl]-2-(4,5-dimethylthiazolyl)-3-(4-sulfophenyl)tetrazolium salt (MTS) reduction assay. Actinomycin D (10 μM, final concentration) and DMSO (0.1%, final concentration) were used as positive and vehicle controls, respectively. Results were expressed as a % of the DMSO control."}, "[4]": {"test_system": "Human adipose tissue derived stem cells (hADSCs)", "test": "Cytotoxicity assay by lactate dehydrogenase (LDH) leakage in hADSCs", "assay_type": "cell-based", "conditions": "10 μM, % of total cell toxicity", "procedure": "as §1, §2\nLactate dehydrogenase (LDH) leakage from cells was measured to quantify the cytotoxicity by using a cytotoxicity detection kit (Roche, Germany) (Crowston, J. G. et al Invest. Ophthalmol. Vis. Sci. 1998, 39, 449). Cells were previously seeded into 48-well plates (4×10^4 cells/well). After a drug treatment, the supernatants and cell layers of the cultures were collected for assay. According to the manufacturer's guidelines for the detection kit, cell layers were lysed with 1% TritonX-100, and cell lysates and supernatants were assayed in a 96-well plate, respectively. Briefly, 100 μL of catalyst solution was added in each assay well for 20 min. Absorbance was measured with an ELISA reader with a 490 nm filter. LDH leakage was shown as relative activity (% of total cell toxicity)."}, "[5]": {"test_system": "NCI-H460 cells (non-small-cell lung cancer)", "test": "Cytotoxicity assay (MTS reduction), NCI-H460", "assay_type": "cell-based, human", "conditions": "3 days, % of DMSO control", "procedure": "as §3, §4"}, "[6]": {"test_system": "SF-268 cells (glioblastoma cells)", "test": "Cytotoxicity assay (MTS reduction), SF-268", "assay_type": "cell-based, human", "conditions": "3 days, % of DMSO control", "procedure": "as §3, §4"}}}
{"substance": "2-[4-(3,4-Dimethoxyphenyl)isoxazol-5-yl]-5-([6-(piperidin-1-yl)hexyloxy]phenol [8b]", "values": [{"measurement": "Mineralization (10 days)", "setting": "[1]", "result": 285, "unit": "%"}, {"measurement": "Cell viability (3 days, MTT)", "setting": "[2]", "result": 11, "unit": "%"}, {"measurement": "Growth percentage MCF7 (Breast)", "setting": "[3]; 4 μg/mL", "result": 93, "unit": "%"}, {"measurement": "Growth percentage MCF7 (Breast)", "setting": "[3]; 20 μg/mL", "result": 4, "unit": "%"}, {"measurement": "Cell cytotoxicity (3 days, LDH)", "setting": "[4]", "result": 41, "unit": "%"}, {"measurement": "Growth percentage NCI-H460 (Lung)", "setting": "[5]; 4 μg/mL", "result": 89, "unit": "%"}, {"measurement": "Growth percentage NCI-H460 (Lung)", "setting": "[5]; 20 μg/mL", "result": 2, "unit": "%"}, {"measurement": "Growth percentage SF-268 (CNS)", "setting": "[6]; 4 μg/mL", "result": 116, "unit": "%"}, {"measurement": "Growth percentage SF-268 (CNS)", "setting": "[6]; 20 μg/mL", "result": 15, "unit": "%"}]}
